According to PMC5072737, “Heterologous Expression and Delivery of Biologically Active Exendin-4 by Lactobacillus paracasei L14” (PLoS ONE, 2016):

Assays:
[1] = tested on: INS-1 cells; test: Staurosporine-induced apoptosis assay (Annexin V-PI, flow cytometry) in INS-1 cells; assay type: cell-based, rat; conditions: pretreatment with the agent (none for staurosporine alone), then staurosporine 1 μmol/l for 1 h, n = 3
Experimental: INS-1 cells were seeded in 96-well plates at a density of 2 × 10^4 cells per well. After 36 h incubation, the cells were grown to nearly 60% confluence and the medium was replaced with RPMI 1640–exendin-4 medium diluted 1:1 (v/v) with fresh RPMI 1640 containing 10% FBS (100 μl per well). Standard GLP-1 in RPMI 1640 medium (100 nmol/l) was used as a positive control and pure RPMI 1640 medium was used as a blank control. The mixture was incubated for 24 h. The PI3K (phosphatidylinositol-3-kinase) antagonist treatment cells were preincubated with wortmannin (100 nmol/l) for 15 min before the treatment. The number of viable cells was then analyzed by cell counting kit-8 (CCK-8) assay (Biyuntian Biotech Co. Ltd.) based on the formation of formazan with sensitive changes in OD450 values. […] The absorbance was read at 450 nm using a Multiskan MK3 ELISA plate reader to determine the in vitro cell proliferation. For apoptosis assays, staurosporine (1 μmol/l) was added in all treatment groups for 1 h, after which the cells were treated with Annexin V-PI (propidium iodide) cell apoptosis kit (Biyuntian Biotech Co. Ltd.) and apoptosis was measured by flow cytometry using a FACScan (Becton Dickinson).

[2] = tested on: PDX-1; test: qRT-PCR of PDX-1 mRNA expression in INS-1 cells; assay type: cell-based, Rattus norvegicus; conditions: INS-1 cells treated 2 h, ΔΔCT, β-actin reference, n = 3
Experimental: (§1) INS-1 cells were seeded in 24-well plates at a density of 10^5 cells per well and grown to 100% confluence before the assay. The medium was changed 24 h before the assay. For the assay, cells were quickly rinsed in 1 ml Hank's balanced salt solution (HBSS) with 3 mM glucose followed by a 2 h preincubation with 1 ml of the same buffer. Then the buffer was discarded, RPMI 1640–exendin-4 medium diluted 1:1 (v/v) with fresh medium plus 5 mM glucose (600 μl per well) were added, and the mixture was incubated for 2 h. Standard GLP-1 (100 nmol/l) in RPMI 1640 medium was used as a positive control. […] At the end of the incubation, supernatant was collected and centrifuged for 10 min at 4000 × g at 4°C and insulin concentration was determined by ELISA kit (Millipore, St. Charles, MO, USA). The cells were collected to analyze mRNA expression of pancreatic duodenal homeobox-1 (PDX-1) and insulin gene (Insulin).
(§2) Total RNA was isolated from INS-1 cells using TRIzol Reagent (Invitrogen). Reverse transcription was performed using PrimeScript II first-strand cDNA synthesis kit (Takara, China), containing 1 μg of total RNA as the template. qRT-PCR was carried out using a SYBR Green assay kit (Tiangen). Specific primers for PDX-1, Insulin and the internal control gene β-actin (Actb) from Rattus norvegicus were designed with Primer Premier 5 software (Table 2). […]

[3] = tested on: INS-1 cells; test: Insulin secretion assay in INS-1 cells; assay type: cell-based, rat; conditions: 5 mM glucose
Experimental: as §1, with “buffer.” for “buffer. Then the buffer was discarded, RPMI 1640–exendin-4 medium diluted 1:1 (v/v) with fresh medium plus 5 mM glucose (600 μl per well) were added, and the mixture was incubated for 2 h. Standard GLP-1 (100 nmol/l) in RPMI 1640 medium was used as a positive control.”

[4] = native GLP-1, rapid inactivation by DPP-IV; cited from earlier work
Text: Glucagon-like peptide-1 (GLP-1) is a potent incretin produced by L-cells of the distal ileum and colon in response to nutrient intake. It has a variety of antidiabetic effects that are mediated through β-cells in pancreatic islets and peripheral tissues. These include not only the promotion of glucose-dependent insulin secretion and inhibition of glucagon secretion, but also inhibition of food intake and body weight gain by delaying gastric emptying, increasing β-cell mass, and enhancing insulin sensitivity. However, despite its favorable antidiabet ...

[5] = tested on: Insulin (Ins1 and Ins2); test: qRT-PCR of insulin gene mRNA expression in INS-1 cells; assay type: cell-based, Rattus norvegicus; conditions: INS-1 cells treated 2 h, ΔΔCT, β-actin reference, n = 3
Experimental: as §1, §2

[6] = tested on: Caco-2 cell monolayer; test: Transport of exendin-4 through Caco-2 monolayer; assay type: in vitro ADME; conditions: Caco-2 monolayer (~21 days, transwell 0.4 μm, 4.67 cm^2), apical to basolateral, s-DMEM without antibiotics, 37°C; first 3 h; ELISA; mean ± SD, n = 3
Experimental: Caco-2 cells (10–20 passages) were cultivated in 25-cm^2 flasks in DMEM supplemented with 10% (v/v) FBS, 1% (v/v) non-essential amino acids and 100 IU/ml penicillin–100μg/ml streptomycin (s-DMEM) at 37°C in an atmosphere of 5% CO2 and high humidity. Upon 80% confluence, cells were harvested using 0.25% trypsin EDTA and seeded on the polyester inserts (0.4 μm pore size, 24 mm diameter, 4.67 cm^2 grown surface, Costar, Corning, NY) in 6-well transwell plates at a density of 10^5 cell/cm^2 and incubated under normal cell culture conditions. The culture medium was replaced every other day for the first week and then every day until it was ready for transport studies when the monolayer became confluent and the transepithelial electrical resistance (TEER) reading reached a plateau (about 21 days). The TEER was monitored according to the method described by Hubatsch et al.
After the Caco-2 monolayer cell became confluent, the culture medium was washed twice by PBS (pH 7.4). […] Caco-2 cell viability was then measured by trypan blue assay at 0, 2, 4 and 6 h after the addition of L14/pMG76e-exendin-4 cells. […] At predetermined time points, 100 and 200 μl supernatant samples were withdrawn from the apical and basolateral sides, respectively, for exendin-4 quantification by ELISA and replaced with an equal volume of s-DMEM without the antibiotics. […]

Molecule	Number of earliest-stage apoptotic cells, % of the control with no staurosporine [1]	PDX-1 mRNA expression, fold of the blank control [2]	Insulin secretion, higher than the blank control (RPMI 1640 only) ([3]; 2 h, blank control 66.5 ± 0.5 ng/ml)	Insulin secretion (insulin concentration in supernatant) ([3]; 2 h incubation, conditioned medium diluted 1:1 with fresh medium, GLP-1 at 100 nmol/l, insulin ELISA, mean ± SD, n = 3)	Half-life in vivo [4]	Insulin mRNA expression, fold of the blank control [5]	Exendin-4 transport rate through the cell monolayer [6]
CN[C@@H]1C[C@H]2O[C@@](C)([C@@H]1OC)n1c3ccccc3c3c4c(c5c6ccccc6n2c5c31)C(=O)NC4 [staurosporine]	264.3%	–	–	–	–	–	–
Glucagon-like peptide-1 [GLP-1]	170%	1.9 fold	7%	71.4 ± 0.7 ng/mL	1 to 2 min	1.7 fold	–
exendin-4 [standard exendin-4]	–	–	–	–	–	–	0.15 ± 0.013 pMol cm^-2 h^-1
